In PubChem BioAssay (NCI) one finds TGI data, which are given here for 27 compounds.

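Dose response: 5 concentrations. Exposure: 48 h. Format: 96-well plates. Endpoint: linear interpolation; highest concentration if not reached. The concentration for full growth arrest is given as TGI.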

One test has as its system HL-60(TB) leukemia. Kind of test: DTP human tumour cell line panel, 48 h.
In the case of `CN(C)c1ccc(S(=O)Nc2ccccc2)cc1` (stereo unspecified), the TGI – broadly, the concentration giving total growth inhibition – is over 100 µM.
On the same count and under the same terms, to `COc1ccc2c(c1)OCC1Cc3ccccc3OC21` (stereo unspecified) belongs over 100 µM.
Turning to `CCOC(=O)c1nc2c(nc1C(=O)OCC)C(=O)c1ccccc1C2=O`, the TGI stood at 1.55 µM.
In the case of `Cc1ccc(C(=C2Sc3ccccc3S2)C(=C2Sc3ccccc3S2)c2ccc(C)s2)s1`, the TGI is over 100 µM.
On the same count and under the same terms, to `CCCCC(C(=O)NCCNC(=O)CCC(=O)N(C)O)C(=O)NCCNC(=O)CCC(=O)N(C)O` belongs over 100 µM; to `C=CCSc1nnc2cc(CN3CCCC3)c(-c3ccc(Cl)cc3)nn12`, 43.5 µM.
Same read-out and setting: to `Cc1cn(C2CC(O)C(CO)O2)c(=O)[nH]c1=O` (stereo unspecified) belongs over 5000 µM; to `COc1cccc2c1OC1(C=C2)Oc2ccccc2C(=O)N1C` (stereo unspecified), 75.9 µM; to `O=[N+]([O-])c1ccc(Oc2c(Cl)cc(S(=O)(=O)/N=C(\NO)Nc3ccc(Cl)cc3)cc2Cl)cc1`, 13.7 µM.
Same read-out and setting: to `O=C(CC(C(=O)c1ccsc1)c1ccc2c(c1)OCO2)c1ccccc1` (stereo unspecified) belongs over 100 µM; to `COc1ccc(NC(=O)CC(=O)N2N=C(N3c4ccccc4Sc4ccccc43)CC2c2ccccc2)cc1` (stereo unspecified), over 100 µM.
`CCOC(=O)c1ccc(NCC#CCN2CCOCC2)cc1` came in with a TGI of over 100 µM.
Compound `CC1(C)C2CCC1(C)[C@H](n1c(=O)n([C@@H]3CC4CCC3(C)C4(C)C)c(=O)n([C@@H]3CC4CCC3(C)C4(C)C)c1=O)C2` showed a TGI of 63.1 µM.
The compound `Cc1cc(C(=O)CCCCOc2ccc(C3=NCCO3)cc2)c(C)n1C` showed a TGI of 23.7 µM.

A further test relates to MDA-MB-435. Kind of test: DTP human tumour cell line panel, 48 h.
`CC1(C)CCCC2OC2CCC(C)(C)C1=O` (stereo unspecified) registered a TGI of over 100 µM.
Compound `O=C1NCC2(CCN(CCCC3(c4ccc(F)cc4)OCCO3)CC2)N1c1ccccc1` registered a TGI of over 100 µM.
Same read-out and setting: to `O=C(Nc1nccs1)c1c(O)nc2sccn2c1=O` belongs over 10 µM; to `CC1=NN(c2cccc(Cl)c2)C2(SCC(=O)N2c2nc3ccccc3s2)/C1=C\c1ccccc1O` (stereo unspecified), 60.2 µM; to `Cc1c(S(=O)(=O)c2ccccc2)c(N)n(CCN(C)C)c1C`, over 100 µM.
Still for that read-out and setting: to `N=C(N)SCc1ccc2c(c1)Sc1ccccc1O2` belongs 19.1 µM; to `CCC1(CC)C(=O)NN(C(=O)c2ccccc2)C1=O`, over 100 µM.
On the same count and under the same terms, to `CS(=O)c1ncc2c(n1)-c1ccccc1OC2` (stereo unspecified) belongs over 100 µM; to `CN(C)c1ccc(C(=N/N=C2\C(=O)Nc3ccccc32)c2ccc(N(C)C)cc2)cc1`, 0.0567 µM.
Regarding `CCCC(=O)OC1CC(n2cc(F)c(=O)[nH]c2=O)OC1COP(=O)(OCC(Cl)(Cl)Cl)OCC(Cl)(Cl)Cl` (stereo unspecified), the TGI was over 100 µM.
`CSC(=S)N(C)C` showed a TGI of over 100 µM.
The compound `CCN(CC)CCn1c(=O)c2cccnc2n2c3c(=O)n(C)c(=O)n(C)c3nc12` gave a TGI of over 100 µM.
The same measure, in the same setting: to `CCOC(=O)C1=C(C)C2C=C(c3cccs3)CC(c3ccc(Cl)cc3)=C2OC1=O` (stereo unspecified) belongs over 100 µM; to `CN(C)c1ccc(S(=O)Nc2ccccc2)cc1` (stereo unspecified), 57.5 µM; to `COc1ccc2c(c1)OCC1Cc3ccccc3OC21` (stereo unspecified), over 100 µM.
The same measure, in the same setting: to `CCOC(=O)c1nc2c(nc1C(=O)OCC)C(=O)c1ccccc1C2=O` belongs 0.804 µM; to `Cc1ccc(C(=C2Sc3ccccc3S2)C(=C2Sc3ccccc3S2)c2ccc(C)s2)s1`, over 100 µM.
In the case of `CCCCC(C(=O)NCCNC(=O)CCC(=O)N(C)O)C(=O)NCCNC(=O)CCC(=O)N(C)O`, the TGI is over 100 µM.
`C=CCSc1nnc2cc(CN3CCCC3)c(-c3ccc(Cl)cc3)nn12` came in with a TGI of 41.7 µM.
The compound `Cc1cn(C2CC(O)C(CO)O2)c(=O)[nH]c1=O` (stereo unspecified) returned a TGI of over 5000 µM.
Compound `COc1cccc2c1OC1(C=C2)Oc2ccccc2C(=O)N1C` (stereo unspecified) returned a TGI of 59.8 µM.
In the case of `O=[N+]([O-])c1ccc(Oc2c(Cl)cc(S(=O)(=O)/N=C(\NO)Nc3ccc(Cl)cc3)cc2Cl)cc1`, the concentration for total growth inhibition (TGI) was 28 µM.
As for `O=C(CC(C(=O)c1ccsc1)c1ccc2c(c1)OCO2)c1ccccc1` (stereo unspecified), the TGI was over 100 µM.
On the same count and under the same terms, to `COc1ccc(NC(=O)CC(=O)N2N=C(N3c4ccccc4Sc4ccccc43)CC2c2ccccc2)cc1` (stereo unspecified) belongs over 100 µM.
As for `CCOC(=O)c1ccc(NCC#CCN2CCOCC2)cc1`, the TGI is over 100 µM.
As for `CC1(C)C2CCC1(C)[C@H](n1c(=O)n([C@@H]3CC4CCC3(C)C4(C)C)c(=O)n([C@@H]3CC4CCC3(C)C4(C)C)c1=O)C2`, the TGI was over 100 µM.
Compound `Cc1cc(C(=O)CCCCOc2ccc(C3=NCCO3)cc2)c(C)n1C` displayed a total growth inhibition concentration (TGI) of 76.6 µM.

A further test concerns NCI-H226 lung. The experiment in a line: DTP human tumour cell line panel, 48 h.
For the compound `CC1(C)CCCC2OC2CCC(C)(C)C1=O` (stereo unspecified), the TGI is over 100 µM.
On the same count and under the same terms, to `O=C1NCC2(CCN(CCCC3(c4ccc(F)cc4)OCCO3)CC2)N1c1ccccc1` belongs over 100 µM; to `O=C(Nc1nccs1)c1c(O)nc2sccn2c1=O`, over 10 µM.
Same read-out and setting: to `CC1=NN(c2cccc(Cl)c2)C2(SCC(=O)N2c2nc3ccccc3s2)/C1=C\c1ccccc1O` (stereo unspecified) belongs over 100 µM; to `Cc1c(S(=O)(=O)c2ccccc2)c(N)n(CCN(C)C)c1C`, over 100 µM; to `N=C(N)SCc1ccc2c(c1)Sc1ccccc1O2`, 31.1 µM.
The same measure, in the same setting: to `CCC1(CC)C(=O)NN(C(=O)c2ccccc2)C1=O` belongs over 100 µM.
For `CS(=O)c1ncc2c(n1)-c1ccccc1OC2` (stereo unspecified), the TGI is over 100 µM.
Still for that read-out and setting: to `CN(C)c1ccc(C(=N/N=C2\C(=O)Nc3ccccc32)c2ccc(N(C)C)cc2)cc1` belongs 43.3 µM.
`CCCC(=O)OC1CC(n2cc(F)c(=O)[nH]c2=O)OC1COP(=O)(OCC(Cl)(Cl)Cl)OCC(Cl)(Cl)Cl` (stereo unspecified) showed a TGI of over 100 µM.
Same read-out and setting: to `CSC(=S)N(C)C` belongs over 100 µM; to `CCN(CC)CCn1c(=O)c2cccnc2n2c3c(=O)n(C)c(=O)n(C)c3nc12`, over 100 µM; to `CCOC(=O)C1=C(C)C2C=C(c3cccs3)CC(c3ccc(Cl)cc3)=C2OC1=O` (stereo unspecified), over 100 µM.
The same measure, in the same setting: to `CN(C)c1ccc(S(=O)Nc2ccccc2)cc1` (stereo unspecified) belongs over 100 µM; to `COc1ccc2c(c1)OCC1Cc3ccccc3OC21` (stereo unspecified), over 100 µM; to `CCOC(=O)c1nc2c(nc1C(=O)OCC)C(=O)c1ccccc1C2=O`, 1.5 µM.
Same read-out and setting: to `Cc1ccc(C(=C2Sc3ccccc3S2)C(=C2Sc3ccccc3S2)c2ccc(C)s2)s1` belongs over 100 µM; to `CCCCC(C(=O)NCCNC(=O)CCC(=O)N(C)O)C(=O)NCCNC(=O)CCC(=O)N(C)O`, over 100 µM; to `C=CCSc1nnc2cc(CN3CCCC3)c(-c3ccc(Cl)cc3)nn12`, 26.7 µM.
As for `Cc1cn(C2CC(O)C(CO)O2)c(=O)[nH]c1=O` (stereo unspecified), the TGI is over 5000 µM.
Still for that read-out and setting: to `COc1cccc2c1OC1(C=C2)Oc2ccccc2C(=O)N1C` (stereo unspecified) belongs 95.9 µM; to `O=[N+]([O-])c1ccc(Oc2c(Cl)cc(S(=O)(=O)/N=C(\NO)Nc3ccc(Cl)cc3)cc2Cl)cc1`, 35.3 µM; to `O=C(CC(C(=O)c1ccsc1)c1ccc2c(c1)OCO2)c1ccccc1` (stereo unspecified), over 100 µM.
Compound `COc1ccc(NC(=O)CC(=O)N2N=C(N3c4ccccc4Sc4ccccc43)CC2c2ccccc2)cc1` (stereo unspecified) had a TGI of over 100 µM.
On the same count and under the same terms, to `CCOC(=O)c1ccc(NCC#CCN2CCOCC2)cc1` belongs over 100 µM.
